Activity calls are given as the source filed them.

Test [1] can be described thus: growth suppression of PTEN-null colon cells, dose response, cell-based, HCT116 PTEN knockout (AID 1047).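 Further: HCT116 colon tumor cells with PTEN knocked out; cells exposed to compound for 60 hours before readout; potency for loss of cell viability measured by luminescence.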 It counts as functional.
Test [2] in a line: growth suppression of beta-catenin-knockout colon cells, dose response, cell-based, HCT116, human colon tumor (AID 1045).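 Further: HCT116 colon tumor cells with beta catenin knocked out; cells exposed to compound for 60 hours.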 The class given is functional.
The target of the next test is Cytochrome P450 2D6 (Homo sapiens, UniProt P10635).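 Further: CYP2D6 member of a cytochrome P450 panel assay.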
Chain of Cytochrome P450 2D6 (P10635 whole entry): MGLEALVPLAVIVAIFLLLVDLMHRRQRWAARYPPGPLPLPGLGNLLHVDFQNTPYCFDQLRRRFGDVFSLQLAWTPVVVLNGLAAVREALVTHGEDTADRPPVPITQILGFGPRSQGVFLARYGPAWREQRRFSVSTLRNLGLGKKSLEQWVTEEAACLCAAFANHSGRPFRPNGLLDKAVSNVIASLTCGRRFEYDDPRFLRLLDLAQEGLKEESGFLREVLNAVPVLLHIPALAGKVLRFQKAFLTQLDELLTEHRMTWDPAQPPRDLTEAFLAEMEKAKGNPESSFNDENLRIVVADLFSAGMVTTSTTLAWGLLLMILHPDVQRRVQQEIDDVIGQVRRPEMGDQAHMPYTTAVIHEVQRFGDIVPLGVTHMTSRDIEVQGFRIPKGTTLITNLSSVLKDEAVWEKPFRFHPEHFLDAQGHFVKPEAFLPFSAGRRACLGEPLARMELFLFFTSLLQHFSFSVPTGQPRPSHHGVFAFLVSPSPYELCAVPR
The next test addresses T1, Cytochrome P450 1A2 (Homo sapiens, UniProt P05177).
T1 sequence (P05177 whole entry): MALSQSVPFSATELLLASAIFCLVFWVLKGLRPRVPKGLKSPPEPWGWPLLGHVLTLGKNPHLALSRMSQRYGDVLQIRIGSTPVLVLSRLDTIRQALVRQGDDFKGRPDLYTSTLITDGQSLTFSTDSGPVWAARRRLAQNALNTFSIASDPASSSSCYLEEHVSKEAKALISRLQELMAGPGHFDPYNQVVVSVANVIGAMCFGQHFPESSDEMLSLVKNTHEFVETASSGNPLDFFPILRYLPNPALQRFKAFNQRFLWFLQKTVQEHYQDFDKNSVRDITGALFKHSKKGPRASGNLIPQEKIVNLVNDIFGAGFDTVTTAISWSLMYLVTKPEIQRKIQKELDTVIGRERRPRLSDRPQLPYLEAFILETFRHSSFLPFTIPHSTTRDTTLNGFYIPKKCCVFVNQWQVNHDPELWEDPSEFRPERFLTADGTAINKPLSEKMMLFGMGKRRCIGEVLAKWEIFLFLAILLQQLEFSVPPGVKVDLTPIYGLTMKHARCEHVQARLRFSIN

The target in the next test is T2, Estrogen receptor (Homo sapiens, UniProt P03372).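 Further: potency for inhibiting coactivator peptide recruitment to the receptor.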
T2 sequence (P03372 whole entry): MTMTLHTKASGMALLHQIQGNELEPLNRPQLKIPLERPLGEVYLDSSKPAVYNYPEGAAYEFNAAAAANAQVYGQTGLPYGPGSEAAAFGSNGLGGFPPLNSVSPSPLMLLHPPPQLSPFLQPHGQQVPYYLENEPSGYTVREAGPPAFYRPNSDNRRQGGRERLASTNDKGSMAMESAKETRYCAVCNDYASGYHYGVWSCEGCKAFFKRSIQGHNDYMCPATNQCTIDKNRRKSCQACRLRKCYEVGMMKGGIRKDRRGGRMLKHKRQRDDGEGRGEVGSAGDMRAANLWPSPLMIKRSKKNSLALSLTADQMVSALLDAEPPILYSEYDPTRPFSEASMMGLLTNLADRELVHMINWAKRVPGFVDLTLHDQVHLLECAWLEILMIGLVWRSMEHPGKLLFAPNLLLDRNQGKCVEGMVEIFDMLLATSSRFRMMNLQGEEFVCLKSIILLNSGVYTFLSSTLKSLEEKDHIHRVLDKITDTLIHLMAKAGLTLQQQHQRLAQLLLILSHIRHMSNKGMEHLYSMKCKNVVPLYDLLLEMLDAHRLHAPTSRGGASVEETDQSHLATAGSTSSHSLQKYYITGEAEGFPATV

Test [3] has as its target T3, RNA-binding protein pos-1 (Caenorhabditis elegans, UniProt G5EF15).
T3 sequence (G5EF15 whole entry): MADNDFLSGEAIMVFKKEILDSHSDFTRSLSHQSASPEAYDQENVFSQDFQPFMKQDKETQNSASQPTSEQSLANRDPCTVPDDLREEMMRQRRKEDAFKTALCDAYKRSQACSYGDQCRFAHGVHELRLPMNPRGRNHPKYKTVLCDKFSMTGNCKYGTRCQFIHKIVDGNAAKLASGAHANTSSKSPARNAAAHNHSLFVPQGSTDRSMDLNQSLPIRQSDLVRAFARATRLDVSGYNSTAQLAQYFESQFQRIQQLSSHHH
The test is described as follows: inhibitors of POS-1/mex-3 RNA binding, dose response, biochemical, fluorescence polarization (AID 1964).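 Further: purified POS-1 fused to maltose binding protein made in E. coli; potency of compounds blocking POS-1 binding to fluorescent RNA.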

In test [4] the target is T4, Zinc finger protein mex-5 (Caenorhabditis elegans, UniProt Q9XUB2).
T4 sequence (Q9XUB2 whole entry): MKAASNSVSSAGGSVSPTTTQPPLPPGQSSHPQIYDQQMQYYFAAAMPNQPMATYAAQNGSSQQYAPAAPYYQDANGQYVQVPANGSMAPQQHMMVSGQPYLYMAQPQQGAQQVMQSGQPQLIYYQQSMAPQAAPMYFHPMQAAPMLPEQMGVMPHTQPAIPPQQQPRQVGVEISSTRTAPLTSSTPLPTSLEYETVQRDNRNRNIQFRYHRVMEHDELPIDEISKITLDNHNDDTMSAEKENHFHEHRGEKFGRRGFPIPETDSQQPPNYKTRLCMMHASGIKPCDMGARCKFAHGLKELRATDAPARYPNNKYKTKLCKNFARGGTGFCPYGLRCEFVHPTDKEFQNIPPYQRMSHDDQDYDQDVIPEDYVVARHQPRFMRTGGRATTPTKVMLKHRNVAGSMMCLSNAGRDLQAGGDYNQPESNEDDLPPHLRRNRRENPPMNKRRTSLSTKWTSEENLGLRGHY
The test is described as follows: MEX-5/TCR-2 RNA interaction inhibitors, dose response, biochemical, C. elegans, fluorescence polarization (AID 1960).

The target in test [5] is T5, Short transient receptor potential channel 4 (Mus musculus, UniProt Q9QUQ5).
T5 sequence (Q9QUQ5 whole entry): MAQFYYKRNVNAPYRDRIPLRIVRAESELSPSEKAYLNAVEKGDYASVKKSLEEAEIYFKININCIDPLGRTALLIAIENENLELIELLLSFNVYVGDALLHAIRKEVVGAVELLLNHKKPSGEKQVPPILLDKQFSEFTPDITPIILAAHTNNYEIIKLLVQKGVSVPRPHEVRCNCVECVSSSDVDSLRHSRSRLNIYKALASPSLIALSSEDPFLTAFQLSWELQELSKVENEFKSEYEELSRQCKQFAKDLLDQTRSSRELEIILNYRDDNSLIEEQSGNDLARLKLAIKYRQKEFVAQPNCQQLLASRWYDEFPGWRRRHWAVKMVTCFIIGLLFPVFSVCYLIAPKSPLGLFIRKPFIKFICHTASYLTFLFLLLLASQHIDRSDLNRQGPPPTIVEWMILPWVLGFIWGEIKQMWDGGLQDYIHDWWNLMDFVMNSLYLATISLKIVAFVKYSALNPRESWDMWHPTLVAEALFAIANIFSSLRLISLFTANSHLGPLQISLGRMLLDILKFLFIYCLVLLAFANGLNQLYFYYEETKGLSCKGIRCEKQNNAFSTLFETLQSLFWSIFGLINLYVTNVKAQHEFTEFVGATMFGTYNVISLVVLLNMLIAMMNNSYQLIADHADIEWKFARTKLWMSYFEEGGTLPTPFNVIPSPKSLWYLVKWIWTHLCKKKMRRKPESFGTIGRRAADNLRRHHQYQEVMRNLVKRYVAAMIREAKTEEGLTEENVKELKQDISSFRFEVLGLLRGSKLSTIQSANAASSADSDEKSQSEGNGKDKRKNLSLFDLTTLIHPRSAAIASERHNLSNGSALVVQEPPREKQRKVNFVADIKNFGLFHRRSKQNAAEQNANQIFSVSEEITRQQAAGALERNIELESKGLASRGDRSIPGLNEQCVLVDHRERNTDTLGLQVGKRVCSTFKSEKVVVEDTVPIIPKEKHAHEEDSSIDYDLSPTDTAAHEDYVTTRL
Put plainly: mouse TRPC4 channel inhibitors, dose response, cell-based, HEK293 TRPC4/mu-opioid, Fluo-4 calcium (AID 434942).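 Further: potency of inhibitors blocking the TRPC4 calcium response.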 The class given is functional.

Test [6] can be described thus: inhibitors of HIV Env-driven cell fusion, dose response, cherry-pick (AID 652057). The class given is functional, cell-based.
The nature of test [7]: inhibitors of clade B AD8 Env fusion, dose response, cell-based, cherry-pick (AID 652062).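 Further: luciferase signal from cell-cell fusion driven by HIV-1 clade B AD8 Env; potency is for inhibitors of fusion seen as a drop in luminescence.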 It counts as functional.
Test [8] addresses T6, Polyadenylate-binding protein 1 (Homo sapiens, UniProt P11940). Put plainly: PABP1 MLLE–PAM2 interaction inhibitors, dose response, miRNA deadenylation inhibitor project, biochemical, fluorescence polarization, Cy5-PAM2 peptide, secondary (AID 602260). The class given is functional. Conditions: read-out: IC50_Mean.
The target of test [9] is T6, Polyadenylate-binding protein 1. The test is described as follows: PABP1 MLLE–PAM2 binding inhibitor potency, dose response, biochemical, fluorescence polarization, FITC-PAM2 peptide (AID 602259). Particulars: read-out: IC50_Mean. It counts as functional.
Test [10] in a line: inhibitors of intracellular T. cruzi replication, confirmation, NIH3T3 host cells, beta-gal luminescence (AID 2044).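 Further: intracellular parasites grown in NIH/3T3 mouse fibroblasts as host cells; luminescent beta-galactosidase reporter signal from transgenic T. cruzi replicating inside host cells; inhibitors lower the luminescence signal.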 The class given is functional, cell-based.
Test [11] in a line: cytotoxicity toward NIH3T3 fibroblasts, dose response, counter-screen, cell-based, ATP luminescence, mouse fibroblasts (AID 2010).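 Further: cells exposed to compound for about 90 hours before reading.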 It counts as functional.
Another test concerns H9c2. Put plainly: cells. Particulars: Rattus norvegicus, H9c2, Myocardium. The class given is functional, cell-based.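 Further: confirmatory concentration-response retest of ultra-high-throughput screening hits for modulation of myocardial damage; cell death induced by hydrogen peroxide oxidative stress; compound pretreatment for 60 min then peroxide exposure for 2 h; potency is for protecting the cells against peroxide damage rather than for killing them.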
Test [12] is described as follows: ZM109 Env clade C HIV-1 fusion inhibitors, dose response, HeLa effector, CEM target cells, luciferase, cherry-pick (AID 652058). The class given is functional, cell-based.
Another test addresses Paired box protein Pax-8 (Homo sapiens, UniProt Q06710). Put plainly: inhibitors of PAX8-driven TPO luciferase reporter, dose response, RMG-I cells, cherry-pick (AID 687027).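 Further: luciferase reporter driven by Pax8 target thyroperoxidase promoter measured by SteadyGlo luminescence.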 The class given is functional, cell-based.
In a further test the test system is P388/ADR. Put plainly: cells. The class given is functional. Conditions: Mus musculus.
The next test concerns SN12K1. The test is described as follows: cells. It counts as functional. Particulars: Homo sapiens.
For a further test, the system named is P388. The test is described as follows: cells. Conditions: Mus musculus. The class given is functional.

T6 sequence (P11940 whole entry): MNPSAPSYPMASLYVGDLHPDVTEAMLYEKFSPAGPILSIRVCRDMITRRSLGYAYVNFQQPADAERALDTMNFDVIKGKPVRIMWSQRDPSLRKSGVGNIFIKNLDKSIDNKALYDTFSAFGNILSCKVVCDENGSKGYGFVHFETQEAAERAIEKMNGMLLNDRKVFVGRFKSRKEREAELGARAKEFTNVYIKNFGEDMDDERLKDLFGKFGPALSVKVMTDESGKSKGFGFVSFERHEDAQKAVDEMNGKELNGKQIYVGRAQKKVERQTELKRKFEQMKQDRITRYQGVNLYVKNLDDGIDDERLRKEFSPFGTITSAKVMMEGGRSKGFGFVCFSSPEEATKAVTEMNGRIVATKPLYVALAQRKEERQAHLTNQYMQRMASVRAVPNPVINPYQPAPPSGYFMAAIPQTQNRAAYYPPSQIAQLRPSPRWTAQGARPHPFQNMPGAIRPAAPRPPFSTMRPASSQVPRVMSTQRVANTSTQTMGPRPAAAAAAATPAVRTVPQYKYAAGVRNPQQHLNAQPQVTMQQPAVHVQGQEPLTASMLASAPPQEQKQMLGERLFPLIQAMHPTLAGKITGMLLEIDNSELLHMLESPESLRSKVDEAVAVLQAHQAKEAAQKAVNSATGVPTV
Chain of Paired box protein Pax-8 (Q06710 whole entry): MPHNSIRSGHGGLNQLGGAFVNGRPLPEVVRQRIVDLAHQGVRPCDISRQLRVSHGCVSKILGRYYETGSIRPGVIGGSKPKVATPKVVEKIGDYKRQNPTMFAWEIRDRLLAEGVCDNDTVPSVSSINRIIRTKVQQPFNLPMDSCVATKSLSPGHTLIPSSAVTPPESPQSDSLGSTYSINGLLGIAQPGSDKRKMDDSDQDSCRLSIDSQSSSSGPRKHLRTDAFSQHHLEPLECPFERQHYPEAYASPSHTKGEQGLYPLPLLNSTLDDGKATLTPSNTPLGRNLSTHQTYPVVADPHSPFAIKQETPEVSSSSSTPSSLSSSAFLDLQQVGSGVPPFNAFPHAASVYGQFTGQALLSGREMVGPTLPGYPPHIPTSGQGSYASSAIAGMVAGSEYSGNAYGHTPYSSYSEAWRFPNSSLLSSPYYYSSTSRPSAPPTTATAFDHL

In the case of `CCOC(=O)c1ccc(NC(=NS(=O)(=O)c2ccccc2C)c2ccccc2)cc1`, the EC50 was 36.4 µM (active) in test [1] and 56.2 µM (active) in test [2]. For the same compound, the AC50 is 17.8 µM (inconclusive) at Cytochrome P450 2D6 and 25.1 µM (inconclusive) on Cytochrome P450 1A2.

`Cc1ccc(S(=O)(=O)Cc2ccc(C(=O)NCc3ccc4c(c3)OCO4)o2)cc1`: the IC50 on Estrogen receptor is given as 37.5 µM (not active).

In the case of `COc1ccc2nc3oc(C(=O)N4CCN(c5cccc(C(F)(F)F)c5)CC4)cc3cc2c1`, the IC50 at Estrogen receptor is 15.4 µM (active).

In the case of `Cc1ccc(NC(=O)c2sc3nc4c(c(-c5ccco5)c3c2N)CCC4)cc1`, the EC50 in test [3] was 2.13 µM (active); in test [4], 2.85 µM (active). Further, the IC50 on Estrogen receptor is reported as > 50 µM (not active).

On to `c1ccc(-c2ccccc2OCCOCCN2CCCCC2)cc1`, for which, in test [5], the EC50 was 2.11 µM (active).

As to `COc1ccc(S(=O)(=O)Nc2ccc3c(c2)CC(=O)N([C@H](C)CO)C[C@H](C)[C@H](CN(C)S(=O)(=O)c2cccs2)O3)cc1`, the AC50 in test [6] is 0.509 µM (active); in test [7], 3.88 µM (active).

`O=C(O)c1cc(-c2ccco2)nc2ccccc12`: the IC50 at Estrogen receptor is 23.4 µM (active); in [8] it was > 66 µM (inactive); in test [9], > 66 µM (inactive).

`Cc1ccc(C)c(Oc2cc(NC(=O)CCCn3nc(C)c([N+](=O)[O-])c3C)cc([N+](=O)[O-])c2)c1`: the values for the EC50 in test [1] and in test [2] were 21.1 µM (active) and 18.9 µM (active), respectively.

`CCCCn1c(NC(=O)c2ccccc2)nc2ccccc21`: the EC50 is 2.15 µM (active) in test [10], 11.3 µM (active) in [11] and 5.96 µM (active) in test [5]. Besides, in the test with H9c2, the IC50 is 9.17 µM (active).

On to `C[C@H](CO)N1C[C@H](C)[C@H](CN(C)Cc2ccc(Cl)c(Cl)c2)Oc2c(NS(=O)(=O)c3ccc(Cl)cc3)cccc2C1=O`, for which the AC50 was 26.9 µM (active) in test [6], 20.1 µM (active) in test [12], 13.7 µM (active) at Paired box protein Pax-8 and 42.9 µM (active) in [7].

As for `Cc1nc2sccn2c1-c1nc(-c2cc3ccccc3o2)cs1`, at Estrogen receptor, the IC50 is 10.7 µM (active).

As for `O=c1c2ccccc2nc(SCc2ccccc2)n1CC1CCCO1` (centres undefined), the EC50 in test [5] is 3.35 µM (active).

Regarding `CCCn1c(NCc2ccc(C)o2)nc2ccccc21`, the EC50 in [5] is 5.31 µM (active).

As to `COc1cccc(C(CNC(=O)C(c2ccccc2)c2ccccc2)N(C)C)c1` (centres undefined), the EC50 in test [5] is 0.944 µM (active).

For the compound `COC(=O)c1ccc2c(c1)C(=O)/C(=C/c1ccc(C)cc1)O2`, the EC50 was 16.8 µM (active) in test [1] and 17.2 µM (active) in [2].

Take `CCOc1ccc(NCc2nnc(SCC(=O)Nc3nc(-c4ccccc4)cs3)n2-c2ccccc2)cc1`: the EC50 in test [1] is 3.65 µM (active); in test [2] it was 3.28 µM (active).

Turning to `CC(=O)/C(=N\Nc1ccc(Cl)cc1Cl)Sc1nnc(-c2ccccc2)n1-c1ccccc1`, the EC50 was 9.61 µM (active) in [1] and 8.46 µM (active) in test [2].

For `COc1cc(/C=C/C(=O)O)ccc1C(=O)O/C=C/c1ccccc1`, the GI50 with P388/ADR was 14.1 µM (inactive); in the test on SN12K1 it was > 100 µM (inactive); in the test on P388, 25.6 µM (inactive).

Turning to `COc1cc2c(cc1OC)CN(c1nc(CN3CCOCC3)nc3sc4c(c13)CCC(C)C4)CC2` (centres undefined), the EC50 is 9.18 µM (active) in test [1] and 9.91 µM (active) in [2].

As for `O=C1C2=C(C3=NCCc4c[nH]c1c43)C1(C=C(Br)C(O)C(Br)=C1)CCN2` (centres undefined), the GI50 is 1.81 µM (inactive) in the test on P388/ADR, 2.99 µM (inactive) in the test on SN12K1 and 1.25 µM (inactive) in the test on P388.

For the compound `COc1ccc(C(=O)NCCc2ccc(Cl)cc2)cc1S(=O)(=O)N1CCCCC1C` (centres undefined), the AC50 in test [6] was 21.7 µM (active); in test [12], 67.5 µM (active); in test [7], 11.4 µM (active).

Take `CNC(=O)SCC(NC(=O)CCC(N)C(=O)O)C(=O)NCC(=O)O` (centres undefined): the GI50 in the test on P388/ADR is 26.4 µM (inactive); in the test on SN12K1, > 59.2 µM (inactive); in the test on P388 it was 27.5 µM (inactive).

Source of the values: ChEMBL document CHEMBL1201862, “PubChem BioAssay data set” (2004).
